Reference: US20100248390A1, “COMPOSITIONS AND METHODS FOR IDENTIFYING LIGANDS OF ODORANT RECEPTORS” (DUKE UNIVERSITY, priority 2009, published 2010)

Columns and labels:
Assay in all cases: CRE-luciferase assay of odorant receptor activation (Dual-Glo, Hana3A cells, RTP1S), dose-response EC50
Type in all cases: cell-based
[1] = system: mouse odorant receptors (ORs); conditions: for log EC50, MOR203-1: receptor MOR203-1; for log EC50, MOR261-1: receptor MOR261-1
Excerpt: (§1) Cloning mouse and human ORs. […] OR open reading frames were amplified from genomic DNA using proofreading KOD DNA polymerase (Toyobo/Novagen) and subcloned into pCI expression vectors (Promega) containing the first 20 residues of human rhodopsin (Rho tag). The sequences of the cloned receptors were verified by sequencing (3100 Genetic Analyzer, ABI Biosystems). Immunocytochemistry and FACS analysis. […] For FACS analysis, phycoerythrin (PE)-conjugated anti-mouse IgG (Jackson Immunologicals) was used. In order to monitor the transfection efficiency, Green Fluorescent Protein (GFP) was co-transfected with the OR. The intensity of receptor cell surface expression was calculated as the ratio of PE and GFP expression. 7-aminoactinomycin D (Calbiochem) was added before flow cytometry to mark dead cells which were excluded from the analysis. The gate and mean of PE positive cells was normalized by GFP values. Luciferase assay. […] Odorant receptor activation leads to an increase in intracellular cAMP; CRE-luciferase (Stratagene) was used to measure this change. […] Hana3A cells were plated on poly-D-lysine-coated 96-well plates (BioCoat; Becton Dickinson). […] For each 96-well plate transfected, 1 μg of CRE-Luc, 1 μg of pRL-SV40, 5 μg of odorant receptor plasmid, and 1 μg of RTP1S was used. Approximately 24 hours post transfection, the medium was replaced with CD293 chemically defined medium (Gibco) and the plate was incubed for 30 min at 37° C. The medium was then replaced with 25 μL of odorant solution diluted in CD293 and the plate was incubated for 4 hrs at 37° C. and 5% CO2. The manufacturer's protocols for measuring luciferase and Renilla luciferase activities was followed. […] All luminescence values were divided by the Renilla Luciferase activity to control for transfection efficiency in a given well. Normalized luciferase activity was calculated using the formula (LN−Lmin)/(Lmax−Lmin), where LN is the luminescence of firefly luciferase in response to the odorant, Lmin is the minimum luciferase value on a plate or set of plates, and Lmax is the maximum luciferase value on a plate or set of plates. The data was analyzed using Microsoft Excel and GraphPad Prism 4. Screening procedure. The entire OR library was stimulated with eight separate odorant mixtures formed from 93 odorants (FIG. 12). […] A comparison between the 93 individual odorants at a 100 μM dose and a no-odor control was performed for all 290 […]. Each comparison was performed in triplicate; statistical significance was assessed by t-test (uncorrected for multiple comparisons). […] A single odorant was used on each plate to avoid cross-contamination, and each OR odorant dose was tested at least three times. The data was fit to a sigmoidal curve. […] Physicochemical descriptors. […] Receptor descriptors. […] Correlations between descriptors and responses. […] All odorants for which there were fewer than 3 responsive receptors were eliminated. For all remaining odorant pairs the Pearson correlation between EC50 vectors and the Euclidean distance between descriptor vectors was calculated. The Pearson correlation between these two sets of distances was then measured. Optimizing descriptors. […] In this method one begins with an empty set of descriptors. Each descriptor is combined with the previous set of descriptors and correlation values are computed for all of these candidate sets of descriptors. To reduce overfitting, the data is randomly divided into ten subsets and correlation values are computed for each leave-one out subset. The final correlation coefficient for each set of descriptors is the average of the correlation coefficients for each subset. The set with the best correlation coefficient then becomes the new set of descriptors and the process is repeated until the correlation coefficient increases by less than 0.004 in three consecutive iterations.

[2] = target: T1, human odorant receptors (ORs) (Homo sapiens, UniProt O76002); conditions: receptor OR2J2; 0 = no response; read-out: log EC50, OR2J2 (converted)
T1 construct: OR open reading frames were amplified from genomic DNA; expressed in transfected cells; host or cells: Hana3A cells, co-transfected with RTP1S, CRE-luciferase and pRL-SV40
T1 sequence (O76002 1-312): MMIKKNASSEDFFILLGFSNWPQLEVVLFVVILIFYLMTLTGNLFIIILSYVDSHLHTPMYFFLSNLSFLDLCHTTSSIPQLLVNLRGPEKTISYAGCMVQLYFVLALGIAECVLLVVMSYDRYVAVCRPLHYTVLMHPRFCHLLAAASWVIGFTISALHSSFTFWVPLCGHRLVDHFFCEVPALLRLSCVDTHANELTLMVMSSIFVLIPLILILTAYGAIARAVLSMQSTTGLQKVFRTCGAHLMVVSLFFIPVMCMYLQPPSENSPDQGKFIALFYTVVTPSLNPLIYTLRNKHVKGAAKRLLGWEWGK
Excerpt: as §1, with “For all remaining odorant pairs the Pearson correlation between EC50 vectors and the Euclidean distance between descriptor vectors was calculated.” left out, “subset.” for “subset. The set with the best correlation coefficient then becomes the new set of descriptors and the process is repeated until the correlation coefficient increases by less than 0.004 in three consecutive iterations.”
(§2) The entire OR library was stimulated with one of 8 odorant mixtures drawn from 93 odorants chosen to represent diverse functional groups, sizes, and structures (Table 3). Each mixture was applied at five different concentrations. […] The 93 odorants were then applied individually at 100 μM to the 290 mixture-responsive ORs.

[3] = target: T2, human odorant receptors (ORs) (Homo sapiens, UniProt Q9Y3N9); conditions: receptor OR2W1; 0 = no response; read-out: log EC50, OR2W1 (converted)
T2 construct: OR open reading frames were amplified from genomic DNA; expressed in transfected cells; host or cells: Hana3A cells, co-transfected with RTP1S, CRE-luciferase and pRL-SV40
T2 sequence (Q9Y3N9 1-320): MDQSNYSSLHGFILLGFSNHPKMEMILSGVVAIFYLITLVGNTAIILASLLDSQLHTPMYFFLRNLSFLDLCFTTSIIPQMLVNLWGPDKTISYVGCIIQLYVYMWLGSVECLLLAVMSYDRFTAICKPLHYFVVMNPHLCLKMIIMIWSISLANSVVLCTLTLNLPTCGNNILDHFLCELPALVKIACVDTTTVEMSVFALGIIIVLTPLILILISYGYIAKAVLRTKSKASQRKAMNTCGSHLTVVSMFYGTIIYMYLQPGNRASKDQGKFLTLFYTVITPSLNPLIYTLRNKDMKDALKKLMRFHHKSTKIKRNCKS
Excerpt: as §1, with “For all remaining odorant pairs the Pearson correlation between EC50 vectors and the Euclidean distance between descriptor vectors was calculated.” left out, “subset.” for “subset. The set with the best correlation coefficient then becomes the new set of descriptors and the process is repeated until the correlation coefficient increases by less than 0.004 in three consecutive iterations.”
as §2

[4] = target: T3, human odorant receptors (ORs) (Homo sapiens, UniProt Q8TCB6); conditions: receptor OR51E1
T3 construct: OR open reading frames were amplified from genomic DNA; expressed in transfected cells; host or cells: Hana3A cells, co-transfected with RTP1S, CRE-luciferase and pRL-SV40
T3 sequence (Q8TCB6 1-318): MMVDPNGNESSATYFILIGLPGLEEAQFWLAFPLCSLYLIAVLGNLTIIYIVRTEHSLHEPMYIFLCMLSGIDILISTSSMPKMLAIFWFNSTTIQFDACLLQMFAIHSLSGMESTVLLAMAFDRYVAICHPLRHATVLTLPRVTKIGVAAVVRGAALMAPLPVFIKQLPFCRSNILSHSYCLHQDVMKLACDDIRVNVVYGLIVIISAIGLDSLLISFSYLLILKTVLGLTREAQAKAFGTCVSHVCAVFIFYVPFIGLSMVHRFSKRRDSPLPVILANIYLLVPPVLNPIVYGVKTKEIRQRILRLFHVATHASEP
Excerpt: as §1, with “For all remaining odorant pairs the Pearson correlation between EC50 vectors and the Euclidean distance between descriptor vectors was calculated.” left out, “subset.” for “subset. The set with the best correlation coefficient then becomes the new set of descriptors and the process is repeated until the correlation coefficient increases by less than 0.004 in three consecutive iterations.”
as §2

[5] = target: T4, human odorant receptors (ORs) (Homo sapiens, UniProt Q8NGJ5); conditions: receptor OR51L1; read-out: log EC50 of odorant at OR51L1 (0 = no response) (converted)
T4 construct: OR open reading frames were amplified from genomic DNA; expressed in transfected cells; host or cells: Hana3A cells, co-transfected with RTP1S, CRE-luciferase and pRL-SV40
T4 sequence (Q8NGJ5 1-315): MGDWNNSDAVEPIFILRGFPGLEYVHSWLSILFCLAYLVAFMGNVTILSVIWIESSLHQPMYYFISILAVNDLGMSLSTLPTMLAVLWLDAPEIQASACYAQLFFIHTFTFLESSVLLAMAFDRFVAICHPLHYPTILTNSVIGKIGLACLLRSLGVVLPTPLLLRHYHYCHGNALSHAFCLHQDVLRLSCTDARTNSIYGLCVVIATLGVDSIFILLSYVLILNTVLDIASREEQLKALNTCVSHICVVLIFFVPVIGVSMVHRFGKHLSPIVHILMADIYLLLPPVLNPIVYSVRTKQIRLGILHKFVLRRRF
Excerpt: as §1, with “For all remaining odorant pairs the Pearson correlation between EC50 vectors and the Euclidean distance between descriptor vectors was calculated.” left out, “subset.” for “subset. The set with the best correlation coefficient then becomes the new set of descriptors and the process is repeated until the correlation coefficient increases by less than 0.004 in three consecutive iterations.”
as §2

Row | SMILES | log EC50, MOR203-1 ([1]; 0 = no response) | log EC50, MOR261-1 ([1]; 0 = no response) | EC50 [2] [µM] | EC50 [3] [µM] | log EC50, MOR268-1 ([1]; receptor MOR268-1, 0 = no response) | log EC50 (Table 4 value), OR51E1 [4] | log EC50 of odorant at MOR1-1 (0 = no response) ([1]; receptor MOR1-1) | EC50 [5] [µM]
1 | CCCCCCCCCO [1-Nononol] | −4.456 | −4.914 | 69.2 | 23.4 |  |  |  | 
2 | CCCCCCCCO [1-Octanol] | −3.563 | −5.192 | 69.2 | 7.45 | −3.63 |  |  | 
3 | CCCCOC(=O)C(C)OC(=O)CCC (stereo not drawn) [Butyl butyryl actate] |  |  |  |  |  | −3.473 |  | 
4 | CCCCCC(=O)O [Hexanoic acid] |  |  |  |  |  |  | −4.625 | 147
